In the SangsterLogP compilation:

Test: from Nakagawa, S.; Okajima, N.; Kitahaba, T.; Nishimura, K.; Fujita, T.; Nakajima, M. (1982). Quantitative structure-activity studies of substituted benzylchrysanthemates. I. Correlation between …

SMILES	logP
CC(C)=C[C@@H]1[C@@H](C(=O)OCc2ccc(C#N)cc2)C1(C)C	4.91
CC(C)=C[C@@H]1[C@@H](C(=O)OCc2ccccc2[N+](=O)[O-])C1(C)C	5.2
COC(=O)[C@@H]1[C@@H](C=C(C)C)C1(C)C	3.76
CC(=O)OCc1coc(Cc2ccccc2)c1	3.24
CC(C)=CC1C(C(=O)OCc2ccccc2)C1(C)C (stereo not drawn)	5.49
C=CCC1=C(C)[C@H](OC(=O)C2C(C=C(C)C)C2(C)C)CC1=O (stereo partly drawn)	4.78
CC(=O)OCc1ccc(Cl)cc1	2.59
COC(=O)C1C(C=C(Cl)Cl)C1(C)C (stereo not drawn)	3.63
CC(=O)OCc1ccc([N+](=O)[O-])cc1	1.73
COC(=O)C1C(C=C2CCSC2=O)C1(C)C (stereo not drawn)	2.33
CC(=O)OCN1C(=O)C2=C(CCCC2)C1=O	1.15
COc1cccc(COC(C)=O)c1	2.02
CC(=O)OCc1ccc(C)cc1	2.44
